Assay results as given in paper PMC8274846, “Biogenic nanoporous silicon carrier improves the efficacy of buparvaquone against resistant visceral leishmaniasis” (PLoS Neglected Tropical Diseases, 2021).

Legend:
[1] = tested on: axenic L.donovani amastigotes, AG83-R, PMM (PMM resistant strain generated from AG83); experiment: microbe, parasite or virus in culture; assay type: cell-based; conditions: for Resistance index (RI), AG83-R, PMM: IC50 against drug resistant strain / IC50 against wild-type strain (AG83), axenic; for IC50: Leishmania donovani, read-out: Axenic IC50, AG83-R, PMM
Protocol: (§1) L. donovani AG83 (MHOM/IN/83/AG83) and GE1 (MHOM/IN/80/GE1F8R) promastigotes were routinely grown in medium 199 supplemented with 10% heat-inactivated fetal bovine serum, 2 mM L-glutamine, 20 mM HEPES, 100 U/mL penicillin, and 100 μg/mL streptomycin at 25°C. L. donovani amastigote forms were grown and maintained as described previously. Axenic amastigote forms were derived from promastigote forms by culturing them in MMA/20 (medium for axenic amastigote) at pH 5.5 [22]. Axenically grown amastigotes were maintained by sub-culture of 10^5 parasites/ml repeated every fifth day under experimental conditions of 37°C temperature and 5% CO2 environment.
(§2) SSG and PMM resistant L. donovani amastigotes were generated by using the methods described previously. […] The cultures were stabilized for three subcultures. Then, the drug concentration was increased until the cell population decreased approximately to 20% for each batch. Finally, when 90% cell population of the initial count was reduced, the phenotype generated was plated on medium 199 agar plates containing the same drug concentration, and a single colony was picked for culture in medium 199 liquid media at the same drug concentration. The cultured promastigotes are converted into amastigotes as described above. Drug pressure was withdrawn, and stability was checked at one, two, and four months. SSG and PMM resistant phenotype clones were labeled as AG83-R,SSG and AG83-R, PMM, respectively.
(§3) The antileishmanial activity of the drug specimens (BPQ+NP, BPQ, SSG, AmB, PMM, and MF) against the axenic amastigotes were evaluated based on the IC50 value, which is the concentration of the specimen required to kill 50% of the parasites. The parasites were first seeded into 96-well plates at a density of 1x10^5 amastigotes/well in 200 μL medium. Then, 10 μL of the drug candidates at various concentrations were added and the final volume was adjusted to […] medium. The number of amastigotes in the wells treated with each specimen were compared to those in the untreated control wells.
(§4) Microscopic examinations were performed in duplicates with various concentrations of pure drugs or buparvaquone-loaded nanoparticles and also for control wells. The amastigotes cells were counted for all cases using a hemocytometer. The mean of the control wells was considered as 100% survival. The counts in the treated wells at various concentrations were converted into percentages. Giemsa-stained slides of the macrophages infected with amastigotes were observed under a light microscope. Then the numbers of amastigotes and infected macrophages per 100 cells were counted for each slide. The percentage (%) of inhibition was calculated by using the equation %ofinhibition=C−T/C×100, (2) where C is the number of amastigotes/infected macrophages per 100 cells in the control well and T is the number of amastigotes/infected macrophages per 100 cells in the drug-treated well.
(§5) Origin version 6.1 software was used to calculate IC50 and CC50 values by plotting a graph of the percentage of inhibition at various concentrations of all the observations.

[2] = tested on: axenic L.donovani amastigotes, AG83-R, SSG (SSG resistant strain generated from AG83); experiment: microbe, parasite or virus in culture; assay type: cell-based; conditions: for Resistance index (RI), AG83-R, SSG: IC50 against drug resistant strain / IC50 against wild-type strain (AG83), axenic; for IC50: Leishmania donovani, read-out: Axenic IC50, AG83-R, SSG
Protocol: as §1, §2, §3, §4, §5

[3] = tested on: wild-type AG83 promastigotes; experiment: IC50 against wild-type AG83 promastigotes (used for generation of resistant strains); assay type: cell-based, L. donovani; conditions: Leishmania donovani, medium 199, read-out: IC50 against the parasite
Protocol: as §2

[4] = tested on: intracellular L.donovani amastigotes, wild-type AG83, in macrophages; experiment: Antileishmanial activity against intracellular amastigotes, wild-type AG83; assay type: cell-based; conditions: for Selectivity index (SI), AG83: CC50/IC50, intracellular; for IC50: Leishmania donovani, Macrophage, intracellular amastigotes, 72 h, mean ± σ, n = 4, read-out: Cellular IC50, Wild-type AG83
Protocol: (§6) The intracellular antileishmanial activity was evaluated based on the reduction in the amastigote numbers in the infected macrophages after the treatment. The method was adapted from our previous work. Briefly, 4x10^6 amastigotes in 500 μL of RPMI-1640 suspension were added to each well containing macrophages with the macrophage: parasite ratio of 1:10. The plates were incubated for 4 h at 37°C in 5% CO2. After the parasite internalization period, cells were washed at least twice with fresh media to remove non-phagocytosed parasites. Then, the drug specimen suspended in 1 mL RPMI-1640 was added, and the samples were incubated for 72 h at 37°C in 5% CO2. The medium was aspirated, the coverslips were removed, and then fixed with methanol and air-dried. After staining with Giemsa, 100 cells on the glass discs were counted. Three independent experiments in quadruplicate for each concentration were performed.
as §4, §5

[5] = tested on: axenic L.donovani amastigotes, wild-type AG83; experiment: Antileishmanial activity against axenic amastigotes, wild-type AG83; assay type: cell-based; conditions: Leishmania donovani; axenic amastigotes; mean ± σ, n = 4
Protocol: as §1, §3, §4, §5

[6] = Cytotoxicity studies (CC50) on peritoneal macrophages; assay type: cell-based, BALB/c mice; conditions: BALB/c, mouse, resident peritoneal macrophages, 48 h exposure, mean ± σ, n = 3
Protocol: Resident peritoneal macrophages were isolated from BALB/c mice. For the isolation, 1.5 mL of sterile thioglycolate medium was injected into the peritoneal cavity to induce non-infectious inflammation. Animals were sacrificed after 5 days, and peritoneal exudates were harvested by intraperitoneal lavage. Cold RPMI (6 mL) was injected into the peritoneal cavity. After 10 min, the injected fluid was withdrawn by the same syringe. From each animal, approximately 3-4 mL of medium was recovered. After centrifugation at 200 g for 15 min, macrophages were collected. […] The cytotoxicity of the drug specimen was evaluated by the CC50 value, which is the concentration required to kill 50% of the host cell population. Macrophages were first isolated from peritoneal lavage as described above. The cells were seeded into 96-well plates at 1x10^6 cells/mL in 200 μL of RPMI-1640 supplemented with 10% FCS, 20 mM L-glutamine, 16 mM NaHCO3, penicillin (50 U/mL) and streptomycin (50 μg/ mL) at 37°C in 5% CO2 for 4 h for adherence. To remove the non-adherent cells, each plate was washed two times with phosphate buffer saline (pH 7.2). […] Microscopic examinations were performed in duplicates with various concentrations of pure drugs or buparvaquone-loaded nanoparticles and also for control wells. The amastigotes cells were counted for all cases using a hemocytometer. The mean of the control wells was considered as 100% survival. The counts in the treated wells at various concentrations were converted into percentages. Giemsa-stained slides of the macrophages infected with amastigotes were observed under a light microscope. Then the numbers of amastigotes and infected macrophages per 100 cells were counted for each slide. The percentage (%) of inhibition was calculated by using the equation %[…]×100, (2) where C is the number of amastigotes/infected macrophages per 100 cells in the control well and T is the number of amastigotes/infected macrophages per 100 cells in the drug-treated well.

[7] = tested on: axenic L.donovani amastigotes, GE1 (isolated strain resistant to SSG); experiment: Antileishmanial activity against axenic amastigotes, GE1; assay type: cell-based; conditions: for Resistance index (RI), GE1: IC50 against drug resistant strain / IC50 against wild-type strain (AG83), axenic; for IC50: Leishmania donovani, axenic amastigotes, mean ± σ, n = 4
Protocol: as §1, §3, §4, §5

[8] = tested on: intracellular L.donovani amastigotes, AG83-R, PMM, in macrophages; experiment: microbe, parasite or virus in culture; assay type: cell-based; conditions: for Selectivity index (SI), AG83-R, PMM: CC50/IC50, intracellular; for IC50: Leishmania donovani, Macrophage, 72 h, read-out: Cellular IC50, AG83-R, PMM
Protocol: as §2, §6, §4, §5

[9] = tested on: intracellular L.donovani amastigotes, AG83-R, SSG, in macrophages; experiment: microbe, parasite or virus in culture; assay type: cell-based; conditions: for Selectivity index (SI), AG83-R, SSG: CC50/IC50, intracellular; for IC50: Leishmania donovani, Macrophage, 72 h, read-out: Cellular IC50, AG83-R, SSG
Protocol: as §2, §6, §4, §5

[10] = tested on: intracellular L.donovani amastigotes, GE1, in macrophages; experiment: Antileishmanial activity against intracellular amastigotes, GE1; assay type: cell-based; conditions: for Selectivity index (SI), GE1: CC50/IC50, intracellular; for IC50: Leishmania donovani, Macrophage, intracellular amastigotes, 72 h, mean ± σ, n = 4, read-out: Cellular IC50, GE1
Protocol: as §6, §4, §5

liver parasite burden = tested on: liver parasite burden; parameters: method as in PMID 14695832, PMID 17715126; conditions: BALB/c mice; cited from earlier work

SMILES | Resistance index (RI), AG83-R, PMM [1] | IC50 [1] [µM] | Resistance index (RI), AG83-R, SSG [2] | IC50 [2] [µM] | IC50 [3] [µM] | Selectivity index (SI), AG83 [4] | IC50 [4] [µM] | IC50 [5] [µM] | CC50 at 48 h [6] [µM] | Resistance index (RI), GE1 [7] | IC50 [7] [µM] | Selectivity index (SI), AG83-R, PMM [8] | IC50 [8] [µM] | Selectivity index (SI), AG83-R, SSG [9] | IC50 [9] [µM] | Selectivity index (SI), GE1 [10] | IC50 [10] [µM] | Reduction in the liver parasite burden (liver parasite burden) [%]
NC[C@@H]1O[C@H](O[C@H]2[C@@H](O)[C@H](O[C@@H]3[C@@H](O)[C@H](N)C[C@H](N)[C@H]3O[C@H]3O[C@H](CO)[C@@H](O)[C@H](O)[C@H]3N)O[C@@H]2CO)[C@H](N)[C@@H](O)[C@@H]1O [PMM, paromomycin] | 27 ± 2 | 327 ± 12 | 32 ± 3 | 384 ± 23 | 10 | 30 ± 5 | 9 ± 2 | 12 ± 1 | 260 ± 20 | 2.1 ± 0.3 | 25 ± 2 | 2 ± 1 | 120 ± 10 | 2 ± 1 | 140 ± 10 | 13 ± 2 | 20 ± 3 | 
C[C@@H]1[C@H](O)[C@@H](C)/C=C/C=C/C=C/C=C/C=C/C=C/C=C/[C@H](O[C@@H]2O[C@H](C)[C@@H](O)[C@H](N)[C@@H]2O)C[C@@H]2O[C@](O)(C[C@@H](O)C[C@@H](O)[C@H](O)CC[C@@H](O)C[C@@H](O)CC(=O)O[C@H]1C)C[C@H](O)[C@H]2C(=O)O [AmB, amphotericin B] | 1.2 ± 0.2 | 0.3 ± 0.1 | 1.1 ± 0.1 | 0.3 ± 0.1 |  | 80 ± 10 | 0.2 ± 0.1 | 0.2 ± 0.1 | 15 ± 2 | 1.1 ± 0.2 | 0.3 ± 0.1 | 70 ± 10 | 0.3 ± 0.1 | 70 ± 10 | 0.2 ± 0.1 | 90 ± 10 | 0.2 ± 0.1 | 
CC(C)(C)C1CCC(CC2=C(OP(=O)(O)O)C(=O)c3ccccc3C2=O)CC1 (stereo not shown) [buparvaquone-3-phosphate] |  |  |  |  |  |  |  |  |  |  |  |  |  |  |  |  |  | 34
